{"source": "the supplement of paper PMC10307832", "assay_in_all_cases": "relative viability (nuclei count vs DMSO), 5 days (fraction); higher = more cells survive", "key": {"201T": {"tested_on": "201T", "how_it_was_run": "(§1)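 Cells from lung cancer lines were seeded into 1536-well plates and, one day later, dosed by pin tool. Treatments were either a single drug or a fixed dose of an anchor drug with five library-drug doses (not always all listed) in √10 steps. After 5 days, nuclei were stained in a one-step fixation (final 0.05% Triton X-100, 1% formaldehyde, 1 ug/ml Hoechst) and counted on 4× images, and relative viability is the treated-to-vehicle nuclei ratio, as the median of duplicate plates.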"}, "ABC-1": {"tested_on": "ABC-1", "how_it_was_run": "as §1"}, "COR-L23": {"tested_on": "COR-L23", "how_it_was_run": "as §1"}, "EKVX": {"tested_on": "EKVX", "how_it_was_run": "as §1"}, "EPLC-272H": {"tested_on": "EPLC-272H", "how_it_was_run": "as §1"}, "HCC-44": {"tested_on": "HCC-44", "how_it_was_run": "as §1"}, "LOU-NH91": {"tested_on": "LOU-NH91", "how_it_was_run": "as §1"}, "NCI-H1650": {"tested_on": "NCI-H1650", "how_it_was_run": "as §1"}, "NCI-H1734": {"tested_on": "NCI-H1734", "how_it_was_run": "as §1"}, "NCI-H1793": {"tested_on": "NCI-H1793", "how_it_was_run": "as §1"}, "NCI-H1993": {"tested_on": "NCI-H1993", "how_it_was_run": "as §1"}, "NCI-H2023": {"tested_on": "NCI-H2023", "how_it_was_run": "as §1"}, "NCI-H2085": {"tested_on": "NCI-H2085", "how_it_was_run": "as §1"}, "NCI-H2170": {"tested_on": "NCI-H2170", "how_it_was_run": "as §1"}, "NCI-H2347": {"tested_on": "NCI-H2347", "how_it_was_run": "as §1"}, "NCI-H2405": {"tested_on": "NCI-H2405", "how_it_was_run": "as §1"}, "NCI-H3122": {"tested_on": "NCI-H3122", "how_it_was_run": "as §1"}, "NCI-H441": {"tested_on": "NCI-H441", "how_it_was_run": "as §1"}, "NCI-H520": {"tested_on": "NCI-H520", "how_it_was_run": "as §1"}, "NCI-H647": {"tested_on": "NCI-H647", "how_it_was_run": "as §1"}, "PC-14": {"tested_on": "PC-14", "how_it_was_run": "as §1"}, "RERF-LC-KJ": {"tested_on": "RERF-LC-KJ", "how_it_was_run": "as §1"}, "SW 900": {"tested_on": "SW 900", "how_it_was_run": "as §1"}}, "data": [{"smiles": "CC(C)Oc1cc(Nc2nc(N[C@@H](C)c3ccc(F)cn3)ncc2Cl)n[nH]1", "note": "[AZ23] + O=C(c1cc(Cc2n[nH]c(=O)c3ccccc23)ccc1F)N1CCN(C(=O)C2CC2)CC1 [Olaparib] (partner 8 µM)", "values": [{"measurement": "relative viability", "setting": "201T; first compound 0.01 µM", "value": 0.899}, {"measurement": "relative viability", "setting": "201T; first compound 0.03162 µM", "value": 0.872}, {"measurement": "relative viability", "setting": "201T; first compound 0.3162 µM", "value": 0.85}, {"measurement": "relative viability", "setting": "ABC-1; first compound 0.01 µM", "value": 0.971}, {"measurement": "relative viability", "setting": "ABC-1; first compound 0.03162 µM", "value": 0.781}, {"measurement": "relative viability", "setting": "ABC-1; first compound 0.3162 µM", "value": 0.673}, {"measurement": "relative viability", "setting": "COR-L23; first compound 0.01 µM", "value": 0.272}, {"measurement": "relative viability", "setting": "COR-L23; first compound 0.03162 µM", "value": 0.365}, {"measurement": "relative viability", "setting": "COR-L23; first compound 0.3162 µM", "value": 0.34}, {"measurement": "relative viability", "setting": "EKVX; first compound 0.01 µM", "value": 0.912}, {"measurement": "relative viability", "setting": "EKVX; first compound 0.03162 µM", "value": 0.97}, {"measurement": "relative viability", "setting": "EKVX; first compound 0.3162 µM", "value": 0.895}, {"measurement": "relative viability", "setting": "EPLC-272H; first compound 0.03162 µM", "value": 0.563}, {"measurement": "relative viability", "setting": "EPLC-272H; first compound 0.3162 µM", "value": 0.901}, {"measurement": "relative viability", "setting": "HCC-44; first compound 0.01 µM", "value": 1.04}, {"measurement": "relative viability", "setting": "HCC-44; first compound 0.03162 µM", "value": 1.04}, {"measurement": "relative viability", "setting": "HCC-44; first compound 0.3162 µM", "value": 0.979}, {"measurement": "relative viability", "setting": "LOU-NH91; first compound 0.01 µM", "value": 0.958}, {"measurement": "relative viability", "setting": "LOU-NH91; first compound 0.03162 µM", "value": 0.961}, {"measurement": "relative viability", "setting": "LOU-NH91; first compound 0.3162 µM", "value": 0.94}, {"measurement": "relative viability", "setting": "NCI-H1650; first compound 0.01 µM", "value": 0.685}, {"measurement": "relative viability", "setting": "NCI-H1650; first compound 0.03162 µM", "value": 0.97}, {"measurement": "relative viability", "setting": "NCI-H1650; first compound 0.3162 µM", "value": 0.876}, {"measurement": "relative viability", "setting": "NCI-H1734; first compound 0.01 µM", "value": 0.628}, {"measurement": "relative viability", "setting": "NCI-H1734; first compound 0.03162 µM", "value": 0.673}, {"measurement": "relative viability", "setting": "NCI-H1734; first compound 0.3162 µM", "value": 0.6}, {"measurement": "relative viability", "setting": "NCI-H1793; first compound 0.01 µM", "value": 0.756}, {"measurement": "relative viability", "setting": "NCI-H1793; first compound 0.03162 µM", "value": 1.1}, {"measurement": "relative viability", "setting": "NCI-H1793; first compound 0.3162 µM", "value": 0.85}, {"measurement": "relative viability", "setting": "NCI-H1993; first compound 0.01 µM", "value": 1.08}, {"measurement": "relative viability", "setting": "NCI-H1993; first compound 0.03162 µM", "value": 1.07}, {"measurement": "relative viability", "setting": "NCI-H1993; first compound 0.3162 µM", "value": 1.01}, {"measurement": "relative viability", "setting": "NCI-H2023; first compound 0.03162 µM", "value": 0.572}, {"measurement": "relative viability", "setting": "NCI-H2023; first compound 0.3162 µM", "value": 0.573}, {"measurement": "relative viability", "setting": "NCI-H2085; first compound 0.01 µM", "value": 0.784}, {"measurement": "relative viability", "setting": "NCI-H2085; first compound 0.03162 µM", "value": 0.884}, {"measurement": "relative viability", "setting": "NCI-H2085; first compound 0.3162 µM", "value": 0.791}, {"measurement": "relative viability", "setting": "NCI-H2170; first compound 0.01 µM", "value": 0.649}, {"measurement": "relative viability", "setting": "NCI-H2170; first compound 0.03162 µM", "value": 0.658}, {"measurement": "relative viability", "setting": "NCI-H2170; first compound 0.3162 µM", "value": 0.619}, {"measurement": "relative viability", "setting": "NCI-H2347; first compound 0.01 µM", "value": 0.579}, {"measurement": "relative viability", "setting": "NCI-H2347; first compound 0.03162 µM", "value": 0.622}, {"measurement": "relative viability", "setting": "NCI-H2347; first compound 0.3162 µM", "value": 0.604}, {"measurement": "relative viability", "setting": "NCI-H2405; first compound 0.01 µM", "value": 0.855}, {"measurement": "relative viability", "setting": "NCI-H2405; first compound 0.03162 µM", "value": 0.903}, {"measurement": "relative viability", "setting": "NCI-H2405; first compound 0.3162 µM", "value": 0.831}, {"measurement": "relative viability", "setting": "NCI-H3122; first compound 0.01 µM", "value": 0.627}, {"measurement": "relative viability", "setting": "NCI-H3122; first compound 0.03162 µM", "value": 0.715}, {"measurement": "relative viability", "setting": "NCI-H3122; first compound 0.3162 µM", "value": 0.684}, {"measurement": "relative viability", "setting": "NCI-H441; first compound 0.01 µM", "value": 0.645}, {"measurement": "relative viability", "setting": "NCI-H441; first compound 0.03162 µM", "value": 0.69}, {"measurement": "relative viability", "setting": "NCI-H441; first compound 0.3162 µM", "value": 0.494}, {"measurement": "relative viability", "setting": "NCI-H520; first compound 0.01 µM", "value": 0.346}, {"measurement": "relative viability", "setting": "NCI-H520; first compound 0.03162 µM", "value": 0.328}, {"measurement": "relative viability", "setting": "NCI-H520; first compound 0.3162 µM", "value": 0.312}, {"measurement": "relative viability", "setting": "NCI-H647; first compound 0.01 µM", "value": 0.68}, {"measurement": "relative viability", "setting": "NCI-H647; first compound 0.03162 µM", "value": 0.687}, {"measurement": "relative viability", "setting": "NCI-H647; first compound 0.3162 µM", "value": 0.812}, {"measurement": "relative viability", "setting": "PC-14; first compound 0.01 µM", "value": 0.189}, {"measurement": "relative viability", "setting": "PC-14; first compound 0.03162 µM", "value": 0.36}, {"measurement": "relative viability", "setting": "PC-14; first compound 0.3162 µM", "value": 0.296}, {"measurement": "relative viability", "setting": "RERF-LC-KJ; first compound 0.01 µM", "value": 1.06}, {"measurement": "relative viability", "setting": "RERF-LC-KJ; first compound 0.03162 µM", "value": 0.875}, {"measurement": "relative viability", "setting": "RERF-LC-KJ; first compound 0.3162 µM", "value": 0.917}, {"measurement": "relative viability", "setting": "SW 900; first compound 0.01 µM", "value": 0.804}, {"measurement": "relative viability", "setting": "SW 900; first compound 0.3162 µM", "value": 0.869}]}]}
